# Measurements reported in patent publication US7781421B2, “Neuroactive 13, 24-cyclo-18, 21-dinorcholanes and structurally related pentacyclic steriods” (Washington University, priority 2003, dated 2010).
# Like-named read-outs stand apart in the source and are kept apart here.
# Key:
# [1] = target: GABAA receptor ([35S]-TBPS binding site, rat brain cortical membranes); experiment: Displacement of [35S]-TBPS binding, rat brain cortical membranes; conditions: 5 μM GABA, 2 nM [35S]-TBPS; ± standard error of the means
# Procedure: Rat brain cortical membranes were prepared with minor modifications of the method previously reported. (Hawkinson, J. E., et al., Correlation of Neuroactive Steroid Modulation of [^35S]t-Butylbicyclophosophorothionate and [^3H]Flunitrazepam Binding and γ-Aminobutyric AcidA Receptor Function, Mol. Pharmacol., 1994, 46, 977-985). Briefly, frozen rat cerebral cortices (Pel-freez, Rogers, Ak.) were thawed and homogenized in 10 volumes of ice-cold 0.32 M sucrose using a glass/Teflon pestle. The homogenate was centrifuged at 1500×g for 10 min at 4° C. The resultant supernatant was centrifuged at 10,000×g for 30 min at 4° C. The pellet (P2) from this centrifugation was resuspended in 200 mM NaCl, 50 mM potassium phosphate buffer, pH 7.4, and centrifuged at 10,000×g for 20 min at 4° C. This washing procedure was done a total of three times, and then pellets were resuspended in buffer (˜4 mL/brain) using a glass/Teflon pestle. The membrane suspension was aliquoted, frozen in liquid nitrogen, and stored at −80° C. prior to use.
# [^35S]-TBPS Binding assays were done according to the procedure described previously (Hawkinson, J. E., et al., Correlation of Neuroactive Steroid Modulation of [^35S]t-Butylbicyclophosophorothionate and [^3H]Flunitrazepam Binding and γ-Aminobutyric AcidA Receptor Function, Mol. Pharmacol., 1994, 46, 977-985) with modifications. Briefly, aliquots of membrane solution (0.5 mg/mL final protein concentration in assay) were incubated with 5 μM GABA, 2 nM [^35S]-TBPS (45-120 Ci/mmol), and 5 μL aliquots of steroid in DMSO solution (final assay concentrations ranged from 1 nM to 10 μM), and brought to a final volume of 1 mL with 200 mM NaCl, 50 mM potassium phosphate buffer, pH 7.4. […] Assay tubes were incubated for 2 hr at room temperature. A Brandel (Gaithersburg, Md.) cell harvester was used for filtration of the assay tubes through Whatman/GF/C glass filter paper. Filter paper was rinsed with 4 mL of ice-cold buffer three times. Radioactivity bound to the filters was read by liquid scintillation counter and data was fit using Sigma Plot version 3.0 to the Hill equation i. f=Rmax/{1+([conc]/IC50)^n}
# Where Rmax is the maximal effect, [conc] is steroid concentration, IC50 is the half-maximal inhibitor concentration and n is the Hill coefficient. Each data point was determined in triplicate and 2-3 full concentration-response curves were generated for each steroid.
# Xenopus laevis tadpoles = experiment: Tadpole loss of righting (LRR) and swimming (LSR) reflexes; assay type: in vivo; conditions: 3 h equilibration at room temperature; for EC50: read-out: LSR EC50 (loss of swimming response)
# Procedure: Tadpole LRR was measured as described previously. (See, Wittmer, L. L., et al., Enantioselectivity of steroid-induced γ-aminobutyric acidA receptor modulation and anesthesia, Mol. Phar., 1996, 50:1581-1586). Briefly, groups of 10 early prelimb-bud stage Xenopus laevis tadpoles (Nasco, Fort Atkinson, Wis.) were placed in 100 mL of oxygenated Ringer's stock solution containing various concentrations of compound. Compounds were added from a 10 mM DMSO stock (final concentration of DMSO in test solutions ≦0.1%). After equilibrating at room temperature for 3 h, tadpoles were evaluated using the LRR and LSR behavioral endpoints. LRR was defined as failure of the tadpole to right itself within 5 sec after being flipped by a smooth glass rod. LSR was defined as failure of the tadpole to swim when touched by a smooth glass rod. In general, the tadpoles regained their righting and swimming reflexes when placed in fresh oxygenated Ringer's solution. Control beakers containing up to 0.6% DMSO produced no LRR or LSR in tadpoles.
# Tadpole LRR and LSR concentration-response curves were fit using Sigma Plot version 3.0 to the Hill equation f=Rmax/{1+([conc]/EC50)^n}
# where Rmax is the maximum effect, [conc] is the steroid concentration, EC50 is the half-maximal effective concentration, and n is the Hill coefficient.
# [2] = target: T1, rat α1β2γ2 GABAA Receptor (Rattus norvegicus, UniProt P18508+P62813+P63138, INS375LLRMFSFK); experiment: Xenopus oocyte two-electrode voltage-clamp electrophysiology; assay type: cell-based; conditions: for Oocyte electrophysiology, ratio of currents in presence/absence of compound, 0.1 μM: 0.1 μM compound co-applied with 2 μM GABA; for Oocyte electrophysiology, ratio of currents in presence/absence of compound, 0.1 μM / Oocyte electrophysiology, ratio of currents in presence/absence of compound, 1 μM / Oocyte electrophysiology, ratio of currents in presence/absence of compound, 10 μM: −70 mV; for Oocyte electrophysiology, ratio of currents in presence/absence of compound, 1 μM: 1 μM compound co-applied with 2 μM GABA; for Oocyte electrophysiology, ratio of currents in presence/absence of compound, 10 μM: 10 μM compound co-applied with 2 μM GABA; for Gating (10 μM), ratio of compound only current/2 μM GABA current: direct current gated by 10 μM compound in the absence of GABA
# T1 construct: from linearized pBluescript vectors containing receptor coding regions; expressed in transfected cells; host or cells: Xenopus laevis oocytes injected with in vitro transcribed capped mRNA
# Procedure: Stage V-VI oocytes were harvested from sexually mature female Xenopus laevis (Xenopus One, Northland, Mich.) under 0.1% tricaine (3-aminobenzoic acid ethyl ester) anesthesia. Oocytes were defolliculated by shaking for 20 min at 37° C. in collagenase (2 mg/ml) dissolved in calcium-free solution containing (in mM): 96 NaCl, 2 KCl, 1 MgCl2, and 5 HEPES at pH 7.4. Capped mRNA, encoding rat GABAA receptor α1, β2 and γ2L subunits was transcribed in vitro using the mMESSAGE mMachine Kit (Ambion, Austin, Tex.) from linearized pBluescript vectors containing receptor coding regions. Subunit transcripts were injected in equal parts (20-40 ng total RNA) 8-24 hours following defolliculation. Oocytes were incubated up to 5 days at 18° C. in ND96 medium containing (in mM): 96 NaCl, 1 KCl, 1 MgCl2, 2 CaCl2 and 5 HEPES at pH 7.4, supplemented with pyruvate (5 mM), penicillin (100 U/ml), streptomycin (100 μg/ml) and gentamycin (50 μg/ml). The cDNAs for the rat GABAA-receptor subunits were originally provided by A. Tobin, University of California, Los Angels (α1), P. Malherbe, Hoffman-La Roche, Switzerland (β2), C. Fraser, National Institute on Alcohol Abuse and Alcoholism (γ2L).
# Two-electrode voltage-clamp experiments were performed with a Warner OC725 amplifier 2-5 days following RNA injection. The extracellular recording solution was ND96 medium with no supplements. Intracellular recording pipettes were filled with 3 M KCl and had open tip resistances of ˜1 MΩ. Drugs were applied from a common tip via a gravity-driven multibarrel drug-delivery system. Steroids were simultaneously co-applied with GABA. Cells were clamped at −70 mV for all experiments, and peak current during 20 s drug applications was measured. Data acquisition and analysis were performed with pCLAMP software (Axon Instruments, California). Statistical differences were determined using a two-tailed Student's t-test.
# The GABA concentration used for the control response was 2 μM. Each compound was evaluated on at least four different oocytes at the concentrations indicated, and the results reported are the ratio of the currents measured in the presence/absence of added compound. (G) represents direct current gated by 10 μM compound in the absence of GABA, and this current is reported as the ratio of compound only current/2 μM GABA current. Error limits are calculated as standard error of the means.
# T1 sequence (P62813 28-455, stated change not applied): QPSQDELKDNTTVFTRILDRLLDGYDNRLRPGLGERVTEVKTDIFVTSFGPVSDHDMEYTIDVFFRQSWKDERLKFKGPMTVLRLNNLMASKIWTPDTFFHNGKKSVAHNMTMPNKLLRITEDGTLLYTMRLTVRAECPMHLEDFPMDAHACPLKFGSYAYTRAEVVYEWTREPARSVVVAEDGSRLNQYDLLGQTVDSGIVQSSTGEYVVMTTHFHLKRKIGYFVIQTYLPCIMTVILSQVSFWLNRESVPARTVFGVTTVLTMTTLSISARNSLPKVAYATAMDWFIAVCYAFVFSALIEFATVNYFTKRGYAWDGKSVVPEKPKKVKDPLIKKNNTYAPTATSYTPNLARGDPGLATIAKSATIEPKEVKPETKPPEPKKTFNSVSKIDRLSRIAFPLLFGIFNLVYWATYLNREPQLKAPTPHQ
# T1 sequence (P63138 26-474, stated change not applied): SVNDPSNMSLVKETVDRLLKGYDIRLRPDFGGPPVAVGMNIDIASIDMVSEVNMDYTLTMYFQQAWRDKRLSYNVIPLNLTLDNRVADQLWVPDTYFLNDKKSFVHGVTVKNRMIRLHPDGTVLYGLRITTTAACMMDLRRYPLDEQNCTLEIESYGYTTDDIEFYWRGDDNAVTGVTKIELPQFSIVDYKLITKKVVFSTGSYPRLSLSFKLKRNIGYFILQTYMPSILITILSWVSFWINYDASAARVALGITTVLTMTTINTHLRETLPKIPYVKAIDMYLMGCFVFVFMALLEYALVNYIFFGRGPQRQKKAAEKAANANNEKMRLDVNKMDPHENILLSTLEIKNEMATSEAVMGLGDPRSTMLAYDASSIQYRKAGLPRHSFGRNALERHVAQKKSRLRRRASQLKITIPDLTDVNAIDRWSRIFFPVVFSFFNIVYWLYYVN
# T1 sequence (P18508 with tags, fused parts or gaps INS375LLRMFSFK): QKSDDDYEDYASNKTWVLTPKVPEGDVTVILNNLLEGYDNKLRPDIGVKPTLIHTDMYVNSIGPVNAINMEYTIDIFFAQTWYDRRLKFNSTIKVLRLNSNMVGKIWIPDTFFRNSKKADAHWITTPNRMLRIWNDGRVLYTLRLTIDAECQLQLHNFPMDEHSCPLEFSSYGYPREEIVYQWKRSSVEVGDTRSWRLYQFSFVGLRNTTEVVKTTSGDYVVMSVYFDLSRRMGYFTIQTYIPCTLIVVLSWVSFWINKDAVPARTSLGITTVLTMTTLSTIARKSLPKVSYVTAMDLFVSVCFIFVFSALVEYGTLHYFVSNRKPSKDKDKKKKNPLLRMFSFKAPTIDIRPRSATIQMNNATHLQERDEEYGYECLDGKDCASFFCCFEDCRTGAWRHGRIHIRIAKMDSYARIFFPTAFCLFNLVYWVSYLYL
SMILES,IC50 [1],LRR ED50 (loss of righting response) (Xenopus laevis tadpoles),LSR EC50 (loss of swimming response) (Xenopus laevis tadpoles),"Oocyte electrophysiology, ratio of currents in presence/absence of compound, 0.1 μM [2]","Oocyte electrophysiology, ratio of currents in presence/absence of compound, 1 μM [2]","Oocyte electrophysiology, ratio of currents in presence/absence of compound, 10 μM [2]","Gating (10 μM), ratio of compound only current/2 μM GABA current [2]",melting point,"EC50 (Xenopus laevis tadpoles; Xenopus laevis, 3 h)","Reversibility of steroid effect on GABA current (FIG. 1A) ([2]; 500 nM compound, 2 μM GABA, GABA recovery panel)",EC50 (Xenopus laevis tadpoles)
"C[C@]12CC[C@@H](O)C[C@@H]1CCC1C3CC[C@@H]4CCC=C[C@]34CCC12 (stereo partly drawn) [Compound 61, (3α,5α)-13,24-Cyclo-18,21-dinorchol-23-en-3-ol]",2000 ± 190 nM,None @ 10,None @ 10,1.28 ± 0.08,1.47 ± 0.10,1.72 ± 0.26,0.19 ± 0.10,166.5 to 169 °C,,,
"CC(=O)[C@H]1CC[C@H]2[C@@H]3CC[C@H]4C[C@H](O)CC[C@]4(C)[C@H]3CC[C@]12C [Compound 1a, (3α,5α)-3-Hydroxypregnan-20-one, reference compound]",,420 ± 40 nM,,,,,,,5500 ± 480 nM,readily reversible,
"CC(=O)C1CCCC23CCC4C(CCC5CC(O)CCC54C)C2CCC13 [Compound 79, (3α,5α,20S)-1-[3-Hydroxy-13,24-cyclo-18,21-dinorcholan-20-yl]ethanone]",93 ± 9 nM,None @ 10,None @ 10,1.00 ± 0.08,1.13 ± 0.15,1.70 ± 0.12,−0.06 ± 0.04,187 to 189 °C,,,
"C[C@]12CC[C@@H](O)C[C@@H]1CCC1C3CC[C@@H]4C(=O)CCC[C@]34CCC12 (stereo partly drawn) [Compound 2a, (3α,5α)-3-Hydroxy-13,24-cyclo-18,21-dinorcholan-20-one]",514 ± 64 nM,1360 ± 200 nM,,1.01 ± 0.03,1.44 ± 0.03,,0 ± 0.1,200 to 202 °C,5450 ± 70 nM,,
"C[C@]12CC[C@@H](O)C[C@@H]1CCC1C3CC[C@@H]4[C@@H](C#N)CCC[C@]34CCC12 (stereo partly drawn) [Compound 40, (3α,5α,20S)-3-Hydroxy-13,24-cyclo-18,21-dinorcholane-20-carbonitrile]",173 ± 12 nM,>10000 nM,None @ 10,1.06 ± 0.03,1.23 ± 0.02,1.27 ± 0.02,−0.01 ± 0.01,250 to 251 °C,,,
"CC(=O)C1=CCCC23CCC4C(CCC5CC(O)CCC54C)C2CCC13 (stereo not drawn) [Compound 83, (3α,5α)-1-[3-Hydroxy-13,24-cyclo-18,21-dinorchol-20(22)-en-20-yl]ethanone]",3190 nM,7200 ± 6620 nM,None @ 10,0.89 ± 0.02,0.86 ± 0.04,1.15 ± 0.04,0.00 ± 0.00,198 to 200 °C,,,
"C[C@]12CC[C@@H](O)C[C@@H]1CCC1C3CC[C@@H]4[C@H]5O[C@H]5CC[C@]34CCC12 (stereo partly drawn) [Compound 71, (3α,5α,20R,22S)-20,22-Epoxy-13,24-cyclo-18,21-dinorcholan-3-ol]",596 ± 71 nM,None @ 10,None @ 10,0.90 ± 0.05,1.05 ± 0.09,1.94 ± 0.23,0.00 ± 0.00,206 to 208 °C,,,
"CC12CCC(O)CC1CCC1C2CCC23C=CC(=O)CC2CCC13 (stereo not drawn) [Compound 30b, (3α,5β)-3-Hydroxy-13,24-cyclo-18,21-dinorchol-23-en-22-one]",4750 ± 970 nM,560 ± 900 nM,,1.87 ± 0.24,1.80 ± 0.25,4.44 ± 0.87,0.26 ± 0.31,196.5 to 199 °C,,,5480 nM
"C=C1CC[C@]23CCC4C(CC[C@H]5C[C@H](O)CC[C@]45C)C2CC[C@@H]3C1 (stereo partly drawn) [Compound 53, (3α,5α)-22-Methylene-13,24-cyclo-18,21-dinorcholan-3-ol]",107000 ± 29600 nM,,,,,1.05 ± 0.04,,187 to 188 °C,,,
"CC(=O)[C@H]1CC[C@H]2[C@@H]3CC[C@@H]4C[C@H](O)CC[C@]4(C)[C@H]3CC[C@]12C [Compound 1b, (3α,5β)-3-Hydroxypregnan-20-one, reference compound]",,63 ± 3 nM,,,,,,,300 nM,,
